Measurements reported in publication PMC5218480 (PLoS ONE, 2017).

Tested on: MV-4-11 cells
Assay: Gene expression microarray analysis (Affymetrix PrimeView) and GSEA
Format: cell-based, human
Design: RFU PODN (11730768_x_at) / Fold change /veh PODN (11730768_x_at) / RFU LINC00158 (11744669_a_at) / Fold change /veh LINC00158 (11744669_a_at) / RFU DUSP10 (11751237_a_at) / Fold change /veh DUSP10 (11751237_a_at) / RFU ID3 (11757404_x_at) / Fold change /veh ID3 (11757404_x_at) / RFU PLEKHG5 (11737974_s_at) / Fold change /veh PLEKHG5 (11737974_s_at) / RFU LRRC4B (11730491_at) / Fold change /veh LRRC4B (11730491_at) / RFU GIMAP4 (11747438_a_at) / Fold change /veh GIMAP4 (11747438_a_at) / RFU KRT8 (11758183_x_at) / Fold change /veh KRT8 (11758183_x_at) / RFU CNN1 (11734310_a_at) / Fold change /veh CNN1 (11734310_a_at) / RFU VPS37D (11726825_at) / Fold change /veh VPS37D (11726825_at) / RFU C10orf10 (11716522_x_at) / Fold change /veh C10orf10 (11716522_x_at) / RFU KIR2DL2 /// KIR2DL4 /// KIR2DL5A /// KIR2DL5B /// KIR2DS1 /// KIR2DS2 /// KIR2DS3 /// KIR2DS4 /// KIR3DL3 /// KIR3DL3 /// KIR3DS1 (11738374_at) / Fold change /veh KIR2DL2 /// KIR2DL4 /// KIR2DL5A /// KIR2DL5B /// KIR2DS1 /// KIR2DS2 /// KIR2DS3 /// KIR2DS4 /// KIR3DL3 /// KIR3DL3 /// KIR3DS1 (11738374_at) / RFU C1QL1 (11718748_at) / Fold change /veh C1QL1 (11718748_at) / RFU TMPRSS4 (11747572_a_at) / Fold change /veh TMPRSS4 (11747572_a_at) / RFU HAMP (11756126_x_at) / Fold change /veh HAMP (11756126_x_at) / RFU RNFT2 (11725882_a_at) / Fold change /veh RNFT2 (11725882_a_at) / RFU NR4A2 (11747474_a_at) / Fold change /veh NR4A2 (11747474_a_at) / RFU ABCC12 (11746883_a_at) / Fold change /veh ABCC12 (11746883_a_at) / RFU TMEM136 (11760407_x_at) / Fold change /veh TMEM136 (11760407_x_at) / RFU CLDN22 /// WWC2 (11732394_at) / Fold change /veh CLDN22 /// WWC2 (11732394_at) / RFU HLA-DPB1 (11760878_x_at) / Fold change /veh HLA-DPB1 (11760878_x_at) / RFU SPINT1 (11716480_a_at) / Fold change /veh SPINT1 (11716480_a_at) / RFU GAP43 (11754022_s_at) / Fold change /veh GAP43 (11754022_s_at) / RFU A4GNT (11735810_at) / Fold change /veh A4GNT (11735810_at) / RFU PRB3 (11715151_x_at) / Fold change /veh PRB3 (11715151_x_at) / RFU TUBB4B (11761932_at) / Fold change /veh TUBB4B (11761932_at) / RFU CAPN14 (11732068_a_at) / Fold change /veh CAPN14 (11732068_a_at) / RFU TMCC2 (11721928_a_at) / Fold change /veh TMCC2 (11721928_a_at) / RFU IRGQ (11745062_a_at) / Fold change /veh IRGQ (11745062_a_at) / RFU FAM174B (11720279_a_at) / Fold change /veh FAM174B (11720279_a_at) / RFU TMPRSS4 (11748680_a_at) / Fold change /veh TMPRSS4 (11748680_a_at) / RFU FAM212B (11763350_a_at) / Fold change /veh FAM212B (11763350_a_at) / RFU PLEKHG5 (11743358_a_at) / Fold change /veh PLEKHG5 (11743358_a_at) / RFU ZSCAN30 (11745921_a_at) / Fold change /veh ZSCAN30 (11745921_a_at) / RFU CMKLR1 (11741424_a_at) / Fold change /veh CMKLR1 (11741424_a_at) / RFU LOC101060620 /// MAPK8IP1 (11723275_at) / Fold change /veh LOC101060620 /// MAPK8IP1 (11723275_at) / RFU SPTSSB (11747773_x_at) / Fold change /veh SPTSSB (11747773_x_at) / RFU PRSS12 (11739890_at) / Fold change /veh PRSS12 (11739890_at) / RFU BIN1 (11741810_x_at) / Fold change /veh BIN1 (11741810_x_at) / RFU WNT11 (11732464_a_at) / Fold change /veh WNT11 (11732464_a_at) / RFU C10orf10 (11716521_a_at) / Fold change /veh C10orf10 (11716521_a_at) / RFU C5orf56 (11738089_at) / Fold change /veh C5orf56 (11738089_at) / RFU CYB561 (11721691_x_at) / Fold change /veh CYB561 (11721691_x_at) / RFU ANKRD19P (11752326_a_at) / Fold change /veh ANKRD19P (11752326_a_at) / RFU OR2T12 /// OR2T33 /// OR2T8 (11738714_s_at) / Fold change /veh OR2T12 /// OR2T33 /// OR2T8 (11738714_s_at) / RFU VCAN (11748164_a_at) / Fold change /veh VCAN (11748164_a_at) / RFU JSRP1 (11732532_at) / Fold change /veh JSRP1 (11732532_at) / RFU KRTAP10-11 (11738290_x_at) / Fold change /veh KRTAP10-11 (11738290_x_at) / RFU MYO3A (11730013_a_at) / Fold change /veh MYO3A (11730013_a_at) / RFU EBF3 (11725865_a_at) / Fold change /veh EBF3 (11725865_a_at) / RFU CAMK2N1 (11719241_x_at) / Fold change /veh CAMK2N1 (11719241_x_at) / RFU C5orf56 (11738088_a_at) / Fold change /veh C5orf56 (11738088_a_at) / RFU OLFML3 (11715873_a_at) / Fold change /veh OLFML3 (11715873_a_at) / RFU LOC100653217 /// NTM (11731650_a_at) / Fold change /veh LOC100653217 /// NTM (11731650_a_at) / RFU MAPK11 (11762145_a_at) / Fold change /veh MAPK11 (11762145_a_at) / RFU FIZ1 (11724087_x_at) / Fold change /veh FIZ1 (11724087_x_at) / RFU OASL (11726364_x_at) / Fold change /veh OASL (11726364_x_at) / RFU SOX15 (11748057_x_at) / Fold change /veh SOX15 (11748057_x_at) / RFU CD79A (11719716_a_at) / Fold change /veh CD79A (11719716_a_at) / RFU HIST1H1D (11736915_at) / Fold change /veh HIST1H1D (11736915_at) / RFU CASKIN2 (11723855_a_at) / Fold change /veh CASKIN2 (11723855_a_at) / RFU LOC730098 (11760151_x_at) / Fold change /veh LOC730098 (11760151_x_at) / RFU OR4N2 (11742367_at) / Fold change /veh OR4N2 (11742367_at) / RFU PRRT2 (11749266_a_at) / Fold change /veh PRRT2 (11749266_a_at) / RFU SNX32 (11753110_a_at) / Fold change /veh SNX32 (11753110_a_at) / RFU CDHR5 (11726645_a_at) / Fold change /veh CDHR5 (11726645_a_at) / RFU RCAN1 (11760418_a_at) / Fold change /veh RCAN1 (11760418_a_at) / RFU FAM167A (11723789_a_at) / Fold change /veh FAM167A (11723789_a_at) / RFU FAM26E (11764081_at) / Fold change /veh FAM26E (11764081_at) / RFU ISYNA1 (11749810_s_at) / Fold change /veh ISYNA1 (11749810_s_at) / RFU ACY1 (11761880_at) / Fold change /veh ACY1 (11761880_at) / RFU 11764098_at / Fold change /veh 11764098_at / RFU SAMD14 (11745864_x_at) / Fold change /veh SAMD14 (11745864_x_at) / RFU NPB (11741838_a_at) / Fold change /veh NPB (11741838_a_at) / RFU TMPRSS6 (11731388_a_at) / Fold change /veh TMPRSS6 (11731388_a_at) / RFU KRTAP10-2 (11738614_at) / Fold change /veh KRTAP10-2 (11738614_at) / RFU ARHGAP8 /// PRR5-ARHGAP8 (11727945_x_at) / Fold change /veh ARHGAP8 /// PRR5-ARHGAP8 (11727945_x_at) / RFU KRTAP5-7 /// NADSYN1 (11734609_at) / Fold change /veh KRTAP5-7 /// NADSYN1 (11734609_at) / RFU RASL12 (11751679_a_at) / Fold change /veh RASL12 (11751679_a_at) / RFU CDKN2B (11736163_a_at) / Fold change /veh CDKN2B (11736163_a_at) / RFU PRF1 (11729649_at) / Fold change /veh PRF1 (11729649_at) / RFU, ZNF638 /// ZNF638-IT1 / Fold change vs veh, ZNF638 /// ZNF638-IT1 / RFU, PANK3 / Fold change vs veh, PANK3 / RFU, SH3YL1 / Fold change vs veh, SH3YL1 / RFU, ZEB2 / Fold change vs veh, ZEB2 / RFU, NRIP1 / Fold change vs veh, NRIP1 / RFU, PTTG1IP / Fold change vs veh, PTTG1IP / RFU, CAPN2 / Fold change vs veh, CAPN2 / RFU, MED14 / Fold change vs veh, MED14 / RFU, SNORA58 / Fold change vs veh, SNORA58 / RFU, C1orf63 / Fold change vs veh, C1orf63 / RFU, LRRFIP1 / Fold change vs veh, LRRFIP1 / RFU, NDUFAF7 / Fold change vs veh, NDUFAF7 / RFU, SLC12A2 / Fold change vs veh, SLC12A2 / RFU, IBTK / Fold change vs veh, IBTK / RFU, ESF1 / Fold change vs veh, ESF1 / Fold change vs veh, TMEM50B / RFU, TAOK1 / Fold change vs veh, TAOK1 / RFU, ACBD3 / Fold change vs veh, ACBD3 / RFU, TMA16 / Fold change vs veh, TMA16 / RFU, RWDD3 / Fold change vs veh, RWDD3 / RFU, BCAT1 / Fold change vs veh, BCAT1 / RFU, EDEM3 / Fold change vs veh, EDEM3 / RFU, TMEM33 / Fold change vs veh, TMEM33 / RFU, WDR75 / Fold change vs veh, WDR75 / RFU, AHCTF1 / Fold change vs veh, AHCTF1 / RFU, TFRC / Fold change vs veh, TFRC / RFU, ZDHHC17 / Fold change vs veh, ZDHHC17 / RFU, NOM1 / Fold change vs veh, NOM1 / RFU, ARL8B / Fold change vs veh, ARL8B / RFU, ZBTB11 / Fold change vs veh, ZBTB11 / RFU, TAMM41 / Fold change vs veh, TAMM41 / RFU, KIAA1704 /// LOC100996395 / Fold change vs veh, KIAA1704 /// LOC100996395 / RFU, ING1 / Fold change vs veh, ING1 / RFU, TRMT61B / Fold change vs veh, TRMT61B / RFU, FUBP3 / Fold change vs veh, FUBP3 / RFU, TP53 / Fold change vs veh, TP53 / RFU, TNKS2 / Fold change vs veh, TNKS2 / RFU, ZFP14 / Fold change vs veh, ZFP14 / RFU, ACTR2 / Fold change vs veh, ACTR2 / RFU, PPP3R1 / Fold change vs veh, PPP3R1 / RFU, PIK3R1 / Fold change vs veh, PIK3R1 / RFU, HNRNPA1 / Fold change vs veh, HNRNPA1 / RFU, RNF170 / Fold change vs veh, RNF170 / RFU, ZNF28 / Fold change vs veh, ZNF28 / RFU, RNGTT / Fold change vs veh, RNGTT / RFU, OGT / Fold change vs veh, OGT / RFU, BRD1 / Fold change vs veh, BRD1 / RFU, MARS / Fold change vs veh, MARS / RFU, ZNF655 / Fold change vs veh, ZNF655 / RFU, FAHD1 / Fold change vs veh, FAHD1 / RFU, BDP1 / Fold change vs veh, BDP1 / RFU, LRRCC1 / Fold change vs veh, LRRCC1 / RFU, ARID1A / Fold change vs veh, ARID1A / RFU, ZNF146 / Fold change vs veh, ZNF146 / RFU, ZNF330 / Fold change vs veh, ZNF330 / RFU, GPN3 / Fold change vs veh, GPN3 / RFU, C9orf123 / Fold change vs veh, C9orf123 / RFU, N4BP2L2 / Fold change vs veh, N4BP2L2 / RFU, ARFIP1 / Fold change vs veh, ARFIP1 / RFU, FAM179B / Fold change vs veh, FAM179B / RFU, BCL10 / Fold change vs veh, BCL10 / RFU, UHRF1BP1L / Fold change vs veh, UHRF1BP1L / RFU, BET1 / Fold change vs veh, BET1 / RFU, CNOT2 / Fold change vs veh, CNOT2 / RFU, ZNF268 / Fold change vs veh, ZNF268 / Fold change vs veh, ZNF507 / RFU, DGCR2 / Fold change vs veh, DGCR2 / RFU, WDSUB1 / Fold change vs veh, WDSUB1 / Fold change vs veh, HSP90B1 /// MIR3652 / RFU, ADSS / Fold change vs veh, ADSS / RFU, GK / Fold change vs veh, GK / RFU, ZNF148 / Fold change vs veh, ZNF148 / RFU, TAF9 / Fold change vs veh, TAF9 / RFU, SLC1A5 / Fold change vs veh, SLC1A5 / RFU, SLMO2 / Fold change vs veh, SLMO2 / RFU, ABCC4 / Fold change vs veh, ABCC4 / RFU, LOC101060439 /// RAP1B / Fold change vs veh, LOC101060439 /// RAP1B / RFU, RFX7 / Fold change vs veh, RFX7 / RFU, GTPBP10 / Fold change vs veh, GTPBP10 / RFU, CNEP1R1 / Fold change vs veh, CNEP1R1 / RFU, BIVM-ERCC5 /// ERCC5 / Fold change vs veh, BIVM-ERCC5 /// ERCC5 / RFU, ILF3 / Fold change vs veh, ILF3 / RFU 11762660_at / Fold change /veh 11762660_at / RFU VCAN (11757783_s_at) / Fold change /veh VCAN (11757783_s_at) / RFU DDX43 (11728927_at) / Fold change /veh DDX43 (11728927_at) / RFU KRT8 (11758188_x_at) / Fold change /veh KRT8 (11758188_x_at) / RFU NKD1 (11759106_at) / Fold change /veh NKD1 (11759106_at) / RFU SRD5A1 (11742802_a_at) / Fold change /veh SRD5A1 (11742802_a_at) / RFU TPSAB1 /// TPSB2 (11721975_s_at) / Fold change /veh TPSAB1 /// TPSB2 (11721975_s_at) / RFU GSTM3 (11746129_a_at) / Fold change /veh GSTM3 (11746129_a_at) / RFU IL23R (11737362_x_at) / Fold change /veh IL23R (11737362_x_at) / RFU TMEM51 (11727254_a_at) / Fold change /veh TMEM51 (11727254_a_at) / RFU PIWIL2 (11732686_x_at) / Fold change /veh PIWIL2 (11732686_x_at) / RFU ORM1 (11744905_x_at) / Fold change /veh ORM1 (11744905_x_at) / RFU CCDC152 (11743942_at) / Fold change /veh CCDC152 (11743942_at) / RFU ECM1 (11717891_a_at) / Fold change /veh ECM1 (11717891_a_at) / RFU IL23R (11748794_a_at) / Fold change /veh IL23R (11748794_a_at) / RFU TNFAIP8L3 (11732012_x_at) / Fold change /veh TNFAIP8L3 (11732012_x_at) / RFU MBOAT4 (11741988_at) / Fold change /veh MBOAT4 (11741988_at) / RFU 11764193_at / Fold change /veh 11764193_at / RFU TMEM53 (11763286_at) / Fold change /veh TMEM53 (11763286_at) / RFU MAGEB2 (11727129_at) / Fold change /veh MAGEB2 (11727129_at) / RFU TMEM200A (11744735_a_at) / Fold change /veh TMEM200A (11744735_a_at) / RFU CCDC152 (11751479_a_at) / Fold change /veh CCDC152 (11751479_a_at) / RFU FAM211A (11726209_a_at) / Fold change /veh FAM211A (11726209_a_at) / RFU RGS16 (11746705_a_at) / Fold change /veh RGS16 (11746705_a_at) / RFU VCAN (11755009_s_at) / Fold change /veh VCAN (11755009_s_at) / RFU RHOB (11743442_s_at) / Fold change /veh RHOB (11743442_s_at) / RFU RGS16 (11720943_a_at) / Fold change /veh RGS16 (11720943_a_at) / RFU RGS16 (11720944_at) / Fold change /veh RGS16 (11720944_at) / RFU, VPS4B / Fold change vs veh, VPS4B / RFU, CREB1 / Fold change vs veh, CREB1 / RFU, DNAJC13 / Fold change vs veh, DNAJC13 / RFU, GNAQ / Fold change vs veh, GNAQ / RFU, CDK5R1 / Fold change vs veh, CDK5R1 / RFU, ZRANB3 / Fold change vs veh, ZRANB3 / RFU, CUL4A / Fold change vs veh, CUL4A / RFU, CCNY / Fold change vs veh, CCNY / RFU, UFL1 / Fold change vs veh, UFL1 / RFU, COG3 / Fold change vs veh, COG3 / RFU, DIAPH2 / Fold change vs veh, DIAPH2 / RFU, SKA2 / Fold change vs veh, SKA2 / RFU, AFF3 / Fold change vs veh, AFF3 / RFU, LMF1 / Fold change vs veh, LMF1 / RFU, IPO11 / Fold change vs veh, IPO11 / RFU, DFFB / Fold change vs veh, DFFB / RFU, FOXP1 / Fold change vs veh, FOXP1 / RFU, CARD8 / Fold change vs veh, CARD8 / RFU, STRN3 / Fold change vs veh, STRN3 / RFU, ADK / Fold change vs veh, ADK / RFU, RASSF2 / Fold change vs veh, RASSF2 / RFU, WIPF1 / Fold change vs veh, WIPF1 / RFU, LARP1B / Fold change vs veh, LARP1B / RFU, RASA1 / Fold change vs veh, RASA1 / RFU, RB1 / Fold change vs veh, RB1 / RFU, PPFIA1 / Fold change vs veh, PPFIA1 / RFU, MAT2A / Fold change vs veh, MAT2A / RFU, CCT5 / Fold change vs veh, CCT5 / RFU, WDR92 / Fold change vs veh, WDR92 / RFU, CUX1 / Fold change vs veh, CUX1 / RFU, TTC7A / Fold change vs veh, TTC7A / RFU, TMEM135 / Fold change vs veh, TMEM135 / RFU, DEPTOR / Fold change vs veh, DEPTOR / RFU, CPM / Fold change vs veh, CPM / RFU, DNAJB6 / Fold change vs veh, DNAJB6 / RFU, CACNA2D3 / Fold change vs veh, CACNA2D3 / RFU, DTX4 / Fold change vs veh, DTX4 / RFU, TFCP2 / Fold change vs veh, TFCP2 / RFU, GMCL1 /// GMCL1P1 / Fold change vs veh, GMCL1 /// GMCL1P1 / RFU, AEBP2 / Fold change vs veh, AEBP2 / RFU, SNHG1 /// SNORD22 /// SNORD25 /// SNORD26 /// SNORD27 /// SNORD28 /// SNORD29 /// SNORD31 / Fold change vs veh, SNHG1 /// SNORD22 /// SNORD25 /// SNORD26 /// SNORD27 /// SNORD28 /// SNORD29 /// SNORD31 / Fold change (Aza/veh), C12orf56 (ProbeSet 11735607_a_at) / Fold change (ACY-1035/veh), C12orf56 (ProbeSet 11735607_a_at) / Fold change (Aza/veh), FGFR1OP (ProbeSet 11751329_s_at) / Fold change (ACY-1035/veh), FGFR1OP (ProbeSet 11751329_s_at) / Fold change (Aza/veh), VPS36 (ProbeSet 11739960_a_at) / Fold change (ACY-1035/veh), VPS36 (ProbeSet 11739960_a_at) / RFU SYPL1 (11715823_x_at) / Fold change /veh SYPL1 (11715823_x_at) / RFU IGFBP7 (11715501_s_at) / Fold change /veh IGFBP7 (11715501_s_at) / RFU REEP3 (11722064_at) / Fold change /veh REEP3 (11722064_at) / RFU IGLL1 (11728026_x_at) / Fold change /veh IGLL1 (11728026_x_at): dose or concentration left out as unconfirmed
Details: ProbeSet 11759095_at; LIST D

## Nc1ncn([C@@H]2O[C@H](CO)[C@@H](O)[C@H]2O)c(=O)n1 [azacitidine]
  RFU, GNAQ: 765.32 RFU
